Experimental data: patent publication US6638936B1, “Benzofurylpiperazine serotonin agonists” (Eli Lilly and Company, priority 1999, dated 2003)
Where two headings read alike, the source gives them in different places.

Experiments:
5-HT6 receptor = 5-HT6 receptor (Homo sapiens, UniProt P50406); assay: Serotonergic receptor binding selectivity, 5-HT6
5-HT4 receptor = 5-HT4 receptor (Homo sapiens, UniProt Q13639); assay: Serotonergic receptor binding selectivity, 5-HT4; conditions: 5-HT RECEPTOR 4
Sequence of 5-HT4 receptor (Q13639 whole entry): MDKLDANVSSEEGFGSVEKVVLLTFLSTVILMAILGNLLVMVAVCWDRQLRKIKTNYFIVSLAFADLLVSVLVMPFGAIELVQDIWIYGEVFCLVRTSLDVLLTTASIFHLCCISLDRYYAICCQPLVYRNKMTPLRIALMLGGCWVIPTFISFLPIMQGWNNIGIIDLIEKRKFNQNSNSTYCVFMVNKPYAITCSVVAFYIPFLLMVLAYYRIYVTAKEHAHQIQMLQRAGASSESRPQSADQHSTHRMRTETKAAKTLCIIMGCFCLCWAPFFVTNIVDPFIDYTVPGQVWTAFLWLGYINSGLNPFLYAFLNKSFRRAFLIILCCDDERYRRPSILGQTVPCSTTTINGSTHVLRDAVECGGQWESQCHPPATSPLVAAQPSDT

5-HT1a receptor = target: T1, 5-HT1a receptor (Homo sapiens, UniProt P08908); assay: Serotonergic receptor binding selectivity, 5-HT1a
T1 sequence (P08908 1-422): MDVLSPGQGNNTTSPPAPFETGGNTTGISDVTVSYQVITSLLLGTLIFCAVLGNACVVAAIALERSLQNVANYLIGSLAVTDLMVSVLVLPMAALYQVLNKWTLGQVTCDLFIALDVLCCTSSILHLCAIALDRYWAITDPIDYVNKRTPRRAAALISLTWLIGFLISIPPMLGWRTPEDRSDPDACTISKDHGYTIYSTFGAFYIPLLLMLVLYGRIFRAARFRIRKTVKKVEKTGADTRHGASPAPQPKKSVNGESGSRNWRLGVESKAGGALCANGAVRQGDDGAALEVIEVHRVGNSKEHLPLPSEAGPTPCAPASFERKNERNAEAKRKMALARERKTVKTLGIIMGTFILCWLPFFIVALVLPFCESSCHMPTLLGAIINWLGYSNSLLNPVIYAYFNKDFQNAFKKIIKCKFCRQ

5-HT1b receptor = 5-HT1b receptor (Homo sapiens, UniProt P28222); assay: Serotonergic receptor binding selectivity, 5-HT1b; conditions: 5-HT RECEPTOR 1b
Sequence of 5-HT1b receptor (P28222 whole entry): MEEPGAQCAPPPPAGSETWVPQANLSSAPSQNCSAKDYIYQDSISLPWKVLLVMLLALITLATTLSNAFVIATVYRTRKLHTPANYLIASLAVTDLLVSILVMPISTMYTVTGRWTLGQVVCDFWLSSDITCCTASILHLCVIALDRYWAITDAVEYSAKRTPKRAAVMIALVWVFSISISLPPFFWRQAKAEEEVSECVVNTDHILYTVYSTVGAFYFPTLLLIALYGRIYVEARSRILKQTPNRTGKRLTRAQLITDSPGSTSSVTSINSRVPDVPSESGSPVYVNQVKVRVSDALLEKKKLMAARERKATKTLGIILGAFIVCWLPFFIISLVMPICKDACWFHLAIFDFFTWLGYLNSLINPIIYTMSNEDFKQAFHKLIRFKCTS

5-HT2b receptor = 5-HT2b receptor (Homo sapiens, UniProt P41595); assay: Serotonergic receptor binding selectivity, 5-HT2b
Sequence of 5-HT2b receptor (P41595 whole entry): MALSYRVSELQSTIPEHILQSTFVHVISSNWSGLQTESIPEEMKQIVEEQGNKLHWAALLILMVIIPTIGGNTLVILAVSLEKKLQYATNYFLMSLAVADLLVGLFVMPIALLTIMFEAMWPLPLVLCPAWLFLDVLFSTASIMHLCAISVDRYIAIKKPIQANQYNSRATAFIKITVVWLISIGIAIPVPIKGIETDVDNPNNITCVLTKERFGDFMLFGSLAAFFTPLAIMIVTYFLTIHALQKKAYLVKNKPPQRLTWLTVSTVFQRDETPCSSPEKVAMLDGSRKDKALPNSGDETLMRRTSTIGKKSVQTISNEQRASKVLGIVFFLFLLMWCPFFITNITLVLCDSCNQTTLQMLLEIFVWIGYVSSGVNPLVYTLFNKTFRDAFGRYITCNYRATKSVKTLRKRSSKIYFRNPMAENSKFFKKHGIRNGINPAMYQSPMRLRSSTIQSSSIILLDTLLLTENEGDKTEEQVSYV

human 5-HT2C receptor [1] = target: T2, human 5-HT2C receptor (Homo sapiens, UniProt P28335); assay: [35S]-GTPγS binding (immunoadsorption scintillation proximity assay); format: biochemical; conditions: for functional activity at the 5-HT2c receptor (in words): [35S]-GTPγS assay
T2 construct: expressed in transfected cells
T2 sequence (P28335 33-458): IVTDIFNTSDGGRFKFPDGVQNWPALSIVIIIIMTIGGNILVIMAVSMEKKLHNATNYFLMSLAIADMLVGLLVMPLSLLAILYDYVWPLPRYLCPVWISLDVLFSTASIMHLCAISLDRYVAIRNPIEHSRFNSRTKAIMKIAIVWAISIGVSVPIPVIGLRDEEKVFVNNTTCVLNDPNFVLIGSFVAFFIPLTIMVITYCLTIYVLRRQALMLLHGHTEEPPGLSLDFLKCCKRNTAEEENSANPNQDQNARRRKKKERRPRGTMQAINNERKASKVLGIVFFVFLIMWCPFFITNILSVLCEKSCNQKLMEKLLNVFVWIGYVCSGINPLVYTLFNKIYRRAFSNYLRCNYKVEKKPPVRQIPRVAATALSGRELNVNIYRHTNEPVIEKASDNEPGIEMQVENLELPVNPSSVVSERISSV
Excerpt: The 5-HT2C receptor is functionally coupled to specific G-proteins. Agonist activation of 5-HT2C G-protein-coupled receptors results in the release of GDP from the […] (G alpha q or G alpha i) of the G-protein and the subsequent binding of GTP. The binding of the stable analog [^35S]-GTPγS is an indicator of this receptor's activation.
The immunoadsorption scintillation proximity assay (ISPA) in microtiter plates of [^35S]-GTPγS binding to G alpha q or G alpha i was modified from published conditions (DeLapp et al, JPET 289 (1999) 946-955). Test compounds were dissolved in DMSO and diluted in assay buffer consisting of 50 mM Tris-HCl (pH 7.4), 10 mM MgCl2, 100 mM NaCl, and 0.2 mM EGTA. Incubations were performed over 12 test concentrations; volume was 200 μl. The incubation also contained […] and 0.25 nM [^35S]-GTPγS. Membrane homogenates from AV12 cells stably transfected with the human 5-HT2C receptor were added and the microtiter plates were incubated for 30 minutes at room temperature. The incubation was terminated by the addition of Nonidet P-40 (final concentration of 0.27%), followed by addition of rabbit polyclonal anti-G alpha q/11 antibody (0.2 μg per well), and anti-rabbit scintillation proximity assay beads (Amersham; 1.25 mg per well; final volume was 290 μl). The mixture was incubated for 3 hours at room temperature to complete the immunoadsorption of [^35S]-GTPγS bound to G alpha q/11. Microtiter plates were centrifuged briefly to pellet beads. [^35S]-GTPγS binding was quantitated by microtiter plate scintillation spectrometry (Wallac). Data analysis was performed by nonlinear regression analysis with GraphPad Prism software running on a personal computer, using 5-HT control concentration-response curves to define maximal stimulation of [^35S]-GTPγS binding.

5-HT1f receptor = target: T3, 5-HT1f receptor (Homo sapiens, UniProt P30939); assay: Serotonergic receptor binding selectivity, 5-HT1f; conditions: 5-HT RECEPTOR 1f
T3 sequence (P30939 1-366): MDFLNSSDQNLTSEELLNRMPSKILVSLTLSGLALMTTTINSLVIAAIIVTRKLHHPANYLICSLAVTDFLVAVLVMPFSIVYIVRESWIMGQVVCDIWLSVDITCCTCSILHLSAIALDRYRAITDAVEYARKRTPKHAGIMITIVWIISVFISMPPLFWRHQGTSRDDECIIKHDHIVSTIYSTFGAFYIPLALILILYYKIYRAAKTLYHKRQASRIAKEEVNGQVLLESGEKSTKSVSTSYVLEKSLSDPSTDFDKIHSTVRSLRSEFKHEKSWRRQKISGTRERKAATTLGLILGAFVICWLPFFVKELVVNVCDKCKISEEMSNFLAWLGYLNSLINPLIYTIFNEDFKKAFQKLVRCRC

5-HT2a receptor = 5-HT2a receptor (Homo sapiens, UniProt P28223); assay: Serotonergic receptor binding selectivity, 5-HT2a
Sequence of 5-HT2a receptor (P28223 whole entry): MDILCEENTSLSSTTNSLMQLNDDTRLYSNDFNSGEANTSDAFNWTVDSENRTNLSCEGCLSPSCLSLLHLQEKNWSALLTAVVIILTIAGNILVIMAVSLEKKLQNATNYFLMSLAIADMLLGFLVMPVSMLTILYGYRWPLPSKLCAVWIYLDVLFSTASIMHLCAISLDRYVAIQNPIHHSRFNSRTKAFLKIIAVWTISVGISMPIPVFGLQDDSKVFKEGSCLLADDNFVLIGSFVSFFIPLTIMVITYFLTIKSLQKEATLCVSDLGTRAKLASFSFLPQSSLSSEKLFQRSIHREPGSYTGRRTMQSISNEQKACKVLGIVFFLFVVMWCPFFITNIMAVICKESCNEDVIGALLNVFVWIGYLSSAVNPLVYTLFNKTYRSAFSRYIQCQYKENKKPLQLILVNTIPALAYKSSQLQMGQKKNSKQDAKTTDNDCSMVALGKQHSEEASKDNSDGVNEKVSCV

5-HT1d receptor = 5-HT1d receptor (Homo sapiens, UniProt P28221); assay: Serotonergic receptor binding selectivity, 5-HT1d; conditions: 5-HT RECEPTOR 1d
Sequence of 5-HT1d receptor (P28221 whole entry): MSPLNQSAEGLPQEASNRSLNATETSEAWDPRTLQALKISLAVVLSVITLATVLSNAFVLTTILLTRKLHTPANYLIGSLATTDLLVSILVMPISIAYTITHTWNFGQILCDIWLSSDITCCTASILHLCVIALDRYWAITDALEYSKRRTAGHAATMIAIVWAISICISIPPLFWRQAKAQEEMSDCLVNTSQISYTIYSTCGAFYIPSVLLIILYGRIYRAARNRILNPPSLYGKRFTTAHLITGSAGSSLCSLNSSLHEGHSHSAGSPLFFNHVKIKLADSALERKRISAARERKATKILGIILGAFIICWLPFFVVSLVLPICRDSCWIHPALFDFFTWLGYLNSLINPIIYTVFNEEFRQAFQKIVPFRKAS

5-HT1e receptor = 5-HT1e receptor (Homo sapiens, UniProt P28566); assay: Serotonergic receptor binding selectivity, 5-HT1e; conditions: 5-HT RECEPTOR 1e
Sequence of 5-HT1e receptor (P28566 whole entry): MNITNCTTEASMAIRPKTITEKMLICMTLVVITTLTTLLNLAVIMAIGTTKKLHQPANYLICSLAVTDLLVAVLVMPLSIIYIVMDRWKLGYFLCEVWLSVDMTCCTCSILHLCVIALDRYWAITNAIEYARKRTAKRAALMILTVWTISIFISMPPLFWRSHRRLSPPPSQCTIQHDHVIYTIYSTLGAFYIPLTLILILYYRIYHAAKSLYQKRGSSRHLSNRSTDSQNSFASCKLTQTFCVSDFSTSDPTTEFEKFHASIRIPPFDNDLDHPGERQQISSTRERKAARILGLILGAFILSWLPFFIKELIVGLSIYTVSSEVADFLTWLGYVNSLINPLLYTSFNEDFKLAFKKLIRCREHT

human 5-HT2C receptor [2] = target: T2, human 5-HT2C receptor; assay: [125I]-DOI binding for determination of 5-HT2c receptor affinity; conditions: for Ki: 5-HT RECEPTOR 2c, [125I]-DOI, membranes of AV12 cells with human 5-HT2c, Ki from IC50 by Cheng-Prusoff; for affinity for the 5-HT2c receptor (in words): [125I]-DOI binding
Method: The ability of the compounds of Formula I to bind to the 5-HT2c receptor subtype was measured essentially as described by Wainscott (Wainscott, et al., Journal of Pharmacology and Experimental Therapeutics, 276, 720-727 (1996)).
AV12 cells stably transfected with the human 5-HT2c receptors were grown in suspension and harvested by centrifugation, resuspended in 50 mM tris-HCl, pH 7.4, and frozen at −70° C. On the day of assay, an aliquot of cells was thawed, resuspended in 40 mL of 50 mM tris-HCl, pH 7.4, and centrifuged at 39,800×g for 10 minutes at 4° C. The resulting pellet was resuspended, incubated at 37° C. for 10 minutes to remove endogenous serotonin, then centrifuged twice more.
Briefly, prepared cell membranes were added to dilutions of compounds in a final solution containing 50 mM tris-HCl, pH 7.4, 9.75 mM MgCl2, 0.5 mM EDTA, 10 μM pargyline, 0.1% sodium ascorbate, and 0.1 nM [^125I]-DOI, with 10 μM mianserin for defining non-specific binding. All incubations (800 μL) were performed at 37° C. for 30 minutes before harvesting onto GF/C filters prewet with 0.5% polyethyleneimine, with four 1 mL washes of ice-cold 50 mM tris-HCl, pH 7.4, and counting in a gamma counter. Nonlinear regression analysis was performed on the concentration response curves using a four parameter logistic equation described by DeLean (DeLean, et al., Molecular Pharmacology, 21, 5-16 (1982)). IC50 values were converted to Ki values using the Cheng-Prusoff equation (Cheng, et al., Biochem. Pharmacol., 22, 3099-3108 (1973)).

Sequence of 5-HT6 receptor (P50406 whole entry): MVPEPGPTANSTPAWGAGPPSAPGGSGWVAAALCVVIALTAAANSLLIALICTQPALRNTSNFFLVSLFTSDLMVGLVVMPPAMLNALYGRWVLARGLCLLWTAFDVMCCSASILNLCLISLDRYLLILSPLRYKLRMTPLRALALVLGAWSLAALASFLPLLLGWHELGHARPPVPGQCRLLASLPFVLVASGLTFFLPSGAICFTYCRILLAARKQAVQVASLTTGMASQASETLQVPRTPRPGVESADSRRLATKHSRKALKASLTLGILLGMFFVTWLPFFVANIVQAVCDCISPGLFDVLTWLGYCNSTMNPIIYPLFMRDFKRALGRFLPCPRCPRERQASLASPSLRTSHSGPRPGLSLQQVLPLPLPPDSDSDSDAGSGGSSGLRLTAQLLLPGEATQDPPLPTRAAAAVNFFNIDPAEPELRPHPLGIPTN

C[C@H]1CN(c2ccc(C(F)(F)F)c3ccoc23)CCN1.O=C(O)/C=C/C(=O)O [Example 1, 1-(4-trifluoromethylbenzofur-7-yl)-3(S)-methylpiperazine fumarate]
Ki (5-HT6 receptor): 225 nM | Ki (5-HT4 receptor): 977 nM | Ki (5-HT1a receptor): 134 nM | Ki (5-HT1b receptor): 260 nM | Ki (5-HT2b receptor): 177 nM | EC50 (human 5-HT2C receptor [1]): 8.5 nM | functional activity at the 5-HT2c receptor (in words) (human 5-HT2C receptor [1]): agonist | Ki (5-HT1f receptor): 163 nM | Ki (5-HT2a receptor): 37.6 nM | Ki (5-HT1d receptor): 147 nM | Ki (5-HT1e receptor): 633 nM | Ki (human 5-HT2C receptor [2]): 2.41 nM | affinity for the 5-HT2c receptor (in words) (human 5-HT2C receptor [2]): found to have affinity

CC[C@H]1CN(c2ccc(C(F)(F)F)c3ccoc23)CCN1.O=C(O)/C=C/C(=O)O [Example 2, 1-(4-trifluoromethylbenzofur-7-yl)-3(S)-ethylpiperazine fumarate]
Ki (5-HT6 receptor; 5-HT RECEPTOR 6, read-out: Ki, 5-HT receptor 6): 607 nM | Ki (5-HT1a receptor; 5-HT RECEPTOR 1a, read-out: Ki, 5-HT receptor 1a): 261 nM | Ki (5-HT1b receptor): 2940 nM | Ki (5-HT2b receptor; 5-HT RECEPTOR 2b, read-out: Ki, 5-HT receptor 2b): 177 nM | functional activity at the 5-HT2c receptor (in words) (human 5-HT2C receptor [1]): agonist | EC50 (human 5-HT2C receptor [1]; agonist of 5-HT2c receptor, membranes of AV12 cells with human 5-HT2C, 5-HT defines maximal stimulation, read-out: EC50, [35S]-GTPγS assay): 7.8 nM | Ki (5-HT1f receptor): 1000 nM | Ki (5-HT2a receptor; 5-HT RECEPTOR 2a, read-out: Ki, 5-HT receptor 2a): 27.8 nM | Ki (5-HT1d receptor): 726 nM | Ki (5-HT1e receptor): 1140 nM | Ki (human 5-HT2C receptor [2]): 0.77 nM | affinity for the 5-HT2c receptor (in words) (human 5-HT2C receptor [2]): found to have affinity
